# Experimental data as given in PubChem BioAssay (NCI).
#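 At the GI50, growth is halved. TGI: total growth inhibition.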
# Columns and labels:
# Assay in all cases: DTP human tumour cell line panel, 384-well format
# OVCAR-3 ovarian = tested on: OVCAR-3 ovarian
# SK-MEL-28 melanoma = tested on: SK-MEL-28 melanoma
# SF-295 CNS = tested on: SF-295 CNS
# NCI-H23 lung = tested on: NCI-H23 lung
# CCRF-CEM leukemia = tested on: CCRF-CEM leukemia
# HT29 colon = tested on: HT29 colon
# MCF7 breast = tested on: MCF7 breast
# KM12 colon = tested on: KM12 colon
# MALME-3M melanoma = tested on: MALME-3M melanoma
# A498 renal = tested on: A498 renal
# TK-10 renal = tested on: TK-10 renal
# T-47D breast = tested on: T-47D breast
# HCT-15 colon = tested on: HCT-15 colon
# HOP-62 NSCLC = tested on: HOP-62 NSCLC
# EKVX NSCLC = tested on: EKVX NSCLC
# HS 578T breast = tested on: HS 578T breast
# BT-549 breast = tested on: BT-549 breast
# MDA-MB-231 breast = tested on: MDA-MB-231 breast
# SNB-75 CNS = tested on: SNB-75 CNS
# HCT-116 colon = tested on: HCT-116 colon
# SF-539 CNS = tested on: SF-539 CNS
# SK-MEL-5 melanoma = tested on: SK-MEL-5 melanoma
# HCC-2998 colon = tested on: HCC-2998 colon
# HL-60(TB) leukemia = tested on: HL-60(TB) leukemia
# SN12C renal = tested on: SN12C renal
# OVCAR-8 ovarian = tested on: OVCAR-8 ovarian
# OVCAR-4 ovarian = tested on: OVCAR-4 ovarian
# SW-620 colon = tested on: SW-620 colon
# NCI-H522 lung = tested on: NCI-H522 lung
# A549 NSCLC = tested on: A549 NSCLC
# LOX IMVI melanoma = tested on: LOX IMVI melanoma
# K-562 leukemia = tested on: K-562 leukemia
# IGROV1 ovarian = tested on: IGROV1 ovarian
# DU-145 prostate = tested on: DU-145 prostate
# NCI-H460 NSCLC = tested on: NCI-H460 NSCLC
# U251 glioblastoma = tested on: U251 glioblastoma
# RPMI-8226 leukemia = tested on: RPMI-8226 leukemia
# MDA-MB-468 breast = tested on: MDA-MB-468 breast
# HOP-92 NSCLC = tested on: HOP-92 NSCLC
# SF-268 CNS = tested on: SF-268 CNS
# NCI-H226 lung = tested on: NCI-H226 lung
# UO-31 renal = tested on: UO-31 renal
# NCI/ADR-RES ovarian = tested on: NCI/ADR-RES ovarian
# M14 melanoma = tested on: M14 melanoma
# ACHN renal = tested on: ACHN renal
# 786-0 renal = tested on: 786-0 renal
# OVCAR-5 ovarian = tested on: OVCAR-5 ovarian
# PC-3 prostate = tested on: PC-3 prostate
# NCI-H322M lung = tested on: NCI-H322M lung
# COLO 205 colon = tested on: COLO 205 colon
# RXF 393 renal = tested on: RXF 393 renal
# MOLT-4 leukemia = tested on: MOLT-4 leukemia
# SR leukemia = tested on: SR leukemia
# SNB-19 CNS = tested on: SNB-19 CNS
compound,measurement,setting,value
CC(C)(C)c1nc(-c2cccc(NS(=O)(=O)c3c(F)cccc3F)c2F)c(-c2ccnc(N)n2)s1,GI50,OVCAR-3 ovarian,34.1 µM
same,TGI,OVCAR-3 ovarian,60.8 µM
same,GI50,SK-MEL-28 melanoma,< 0.01 µM
same,GI50,SF-295 CNS,48.1 µM
same,TGI,SF-295 CNS,> 100 µM
same,GI50,NCI-H23 lung,13.7 µM
same,TGI,NCI-H23 lung,52.3 µM
same,GI50,CCRF-CEM leukemia,14.4 µM
same,TGI,CCRF-CEM leukemia,> 44.1 µM
same,GI50,HT29 colon,0.0124 µM
same,TGI,HT29 colon,> 58.4 µM
same,GI50,MCF7 breast,25.3 µM
same,TGI,MCF7 breast,62.6 µM
same,GI50,KM12 colon,27.7 µM
same,TGI,KM12 colon,> 70.9 µM
same,GI50,MALME-3M melanoma,< 0.01 µM
same,GI50,A498 renal,60 µM
same,TGI,A498 renal,> 94.6 µM
same,GI50,TK-10 renal,11.7 µM
same,TGI,TK-10 renal,> 60.7 µM
same,GI50,T-47D breast,41.5 µM
same,TGI,T-47D breast,> 100 µM
same,GI50,HCT-15 colon,26 µM
same,TGI,HCT-15 colon,> 74.4 µM
same,GI50,HOP-62 NSCLC,55.5 µM
same,TGI,HOP-62 NSCLC,> 100 µM
same,GI50,EKVX NSCLC,26.6 µM
same,TGI,EKVX NSCLC,59.6 µM
same,GI50,HS 578T breast,33 µM
same,TGI,HS 578T breast,> 75.9 µM
same,GI50,BT-549 breast,42.7 µM
same,TGI,BT-549 breast,70.1 µM
same,GI50,MDA-MB-231 breast,15 µM
same,TGI,MDA-MB-231 breast,37.4 µM
same,GI50,SNB-75 CNS,> 62.8 µM
same,TGI,SNB-75 CNS,> 81.3 µM
same,GI50,HCT-116 colon,11.7 µM
same,TGI,HCT-116 colon,> 66.4 µM
same,GI50,SF-539 CNS,49.7 µM
same,TGI,SF-539 CNS,> 94.2 µM
same,GI50,SK-MEL-5 melanoma,< 0.01 µM
same,TGI,SK-MEL-5 melanoma,> 100 µM
same,GI50,HCC-2998 colon,34.8 µM
same,TGI,HCC-2998 colon,> 74.7 µM
same,GI50,HL-60(TB) leukemia,3.98 µM
same,TGI,HL-60(TB) leukemia,27.3 µM
same,GI50,SN12C renal,38.4 µM
same,TGI,SN12C renal,> 100 µM
same,GI50,OVCAR-8 ovarian,44.3 µM
same,TGI,OVCAR-8 ovarian,89 µM
same,GI50,OVCAR-4 ovarian,24.9 µM
same,TGI,OVCAR-4 ovarian,52 µM
same,GI50,SW-620 colon,32.4 µM
same,TGI,SW-620 colon,> 77.4 µM
same,GI50,NCI-H522 lung,7.22 µM
same,TGI,NCI-H522 lung,41 µM
same,GI50,A549 NSCLC,20.2 µM
same,TGI,A549 NSCLC,72.5 µM
same,GI50,LOX IMVI melanoma,1.28 µM
same,TGI,LOX IMVI melanoma,> 63.8 µM
same,GI50,K-562 leukemia,4.59 µM
same,TGI,K-562 leukemia,20.7 µM
same,GI50,IGROV1 ovarian,7.65 µM
same,TGI,IGROV1 ovarian,> 52.6 µM
same,GI50,DU-145 prostate,14.9 µM
same,TGI,DU-145 prostate,41.6 µM
same,GI50,NCI-H460 NSCLC,29.3 µM
same,TGI,NCI-H460 NSCLC,> 75.7 µM
same,GI50,U251 glioblastoma,53.8 µM
same,TGI,U251 glioblastoma,> 100 µM
same,GI50,RPMI-8226 leukemia,5.83 µM
same,TGI,RPMI-8226 leukemia,19.7 µM
same,GI50,MDA-MB-468 breast,28.6 µM
same,TGI,MDA-MB-468 breast,57.7 µM
same,GI50,HOP-92 NSCLC,50 µM
same,TGI,HOP-92 NSCLC,> 94 µM
same,GI50,SF-268 CNS,42.3 µM
same,TGI,SF-268 CNS,> 84.5 µM
same,GI50,NCI-H226 lung,22.1 µM
same,TGI,NCI-H226 lung,67 µM
same,GI50,UO-31 renal,16.6 µM
same,TGI,UO-31 renal,> 100 µM
same,GI50,NCI/ADR-RES ovarian,22.6 µM
same,TGI,NCI/ADR-RES ovarian,53.8 µM
same,GI50,M14 melanoma,< 0.01 µM
same,TGI,M14 melanoma,< 0.017 µM
same,GI50,ACHN renal,0.183 µM
same,TGI,ACHN renal,> 100 µM
same,GI50,786-0 renal,43.8 µM
same,TGI,786-0 renal,> 100 µM
same,GI50,OVCAR-5 ovarian,23.8 µM
same,TGI,OVCAR-5 ovarian,> 85.2 µM
same,GI50,PC-3 prostate,48.9 µM
same,TGI,PC-3 prostate,> 93.6 µM
same,GI50,NCI-H322M lung,23 µM
same,TGI,NCI-H322M lung,69.8 µM
same,GI50,COLO 205 colon,< 0.01 µM
same,GI50,RXF 393 renal,50.5 µM
same,TGI,RXF 393 renal,> 81.6 µM
same,GI50,MOLT-4 leukemia,6.59 µM
same,TGI,MOLT-4 leukemia,24.3 µM
same,GI50,SR leukemia,6.62 µM
same,TGI,SR leukemia,23.8 µM
same,GI50,SNB-19 CNS,48.7 µM
same,TGI,SNB-19 CNS,> 100 µM
